Experiment [1] concerns the target 5-hydroxytryptamine receptor 6 (Homo sapiens, UniProt P50406). The experiment is classed as cell membranes, HeLa, Membrane. The following applies: hela.
Experiment [2] addresses T1, C-C chemokine receptor type 4 (Homo sapiens, UniProt P51679).
T1 sequence (P51679 whole entry): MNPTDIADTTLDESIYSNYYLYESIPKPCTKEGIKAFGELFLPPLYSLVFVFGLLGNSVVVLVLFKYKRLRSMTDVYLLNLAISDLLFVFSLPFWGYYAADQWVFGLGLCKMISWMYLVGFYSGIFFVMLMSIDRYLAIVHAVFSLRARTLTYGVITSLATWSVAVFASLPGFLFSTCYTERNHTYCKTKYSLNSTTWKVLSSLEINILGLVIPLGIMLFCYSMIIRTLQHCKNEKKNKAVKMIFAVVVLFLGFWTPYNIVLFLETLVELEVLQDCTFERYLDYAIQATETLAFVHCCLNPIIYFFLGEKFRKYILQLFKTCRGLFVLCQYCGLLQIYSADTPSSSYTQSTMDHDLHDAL
The experiment is classed as cell membranes, Membrane. The following applies: chem-1.

The target of experiment [3] is C-C chemokine receptor type 5 (Homo sapiens, UniProt P51681). The experiment is classed as cell membranes, Membrane. The following applies: hek293.
Sequence of C-C chemokine receptor type 5 (P51681 whole entry): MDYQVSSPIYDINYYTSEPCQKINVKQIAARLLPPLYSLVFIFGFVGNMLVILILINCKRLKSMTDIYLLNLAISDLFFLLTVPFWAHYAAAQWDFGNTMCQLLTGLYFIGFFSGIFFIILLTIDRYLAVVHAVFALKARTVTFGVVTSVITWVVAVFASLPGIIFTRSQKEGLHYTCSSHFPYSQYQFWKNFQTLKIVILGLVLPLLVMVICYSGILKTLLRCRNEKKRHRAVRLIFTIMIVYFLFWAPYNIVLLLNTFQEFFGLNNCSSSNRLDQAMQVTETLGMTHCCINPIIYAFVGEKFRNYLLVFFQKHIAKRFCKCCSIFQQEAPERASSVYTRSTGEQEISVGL
The target of experiment [4] is T2, C-X-C chemokine receptor type 2 (Homo sapiens, UniProt P25025).
T2 sequence (P25025 whole entry): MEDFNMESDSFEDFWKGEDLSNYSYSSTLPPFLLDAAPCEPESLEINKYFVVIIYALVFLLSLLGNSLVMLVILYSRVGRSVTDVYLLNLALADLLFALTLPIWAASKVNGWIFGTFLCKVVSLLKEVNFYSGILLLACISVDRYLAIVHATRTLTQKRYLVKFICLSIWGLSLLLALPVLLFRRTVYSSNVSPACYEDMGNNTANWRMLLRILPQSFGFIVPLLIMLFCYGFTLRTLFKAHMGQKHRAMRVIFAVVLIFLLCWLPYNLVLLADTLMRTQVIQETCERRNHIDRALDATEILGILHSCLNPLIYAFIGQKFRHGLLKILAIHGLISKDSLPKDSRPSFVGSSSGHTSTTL
The experiment is classed as cell membranes, Membrane. The following applies: cho-k1.

Experiment [5] addresses T3, 3-hydroxy-3-methylglutaryl-coenzyme A reductase (Homo sapiens, UniProt P04035).
T3 sequence (P04035 whole entry): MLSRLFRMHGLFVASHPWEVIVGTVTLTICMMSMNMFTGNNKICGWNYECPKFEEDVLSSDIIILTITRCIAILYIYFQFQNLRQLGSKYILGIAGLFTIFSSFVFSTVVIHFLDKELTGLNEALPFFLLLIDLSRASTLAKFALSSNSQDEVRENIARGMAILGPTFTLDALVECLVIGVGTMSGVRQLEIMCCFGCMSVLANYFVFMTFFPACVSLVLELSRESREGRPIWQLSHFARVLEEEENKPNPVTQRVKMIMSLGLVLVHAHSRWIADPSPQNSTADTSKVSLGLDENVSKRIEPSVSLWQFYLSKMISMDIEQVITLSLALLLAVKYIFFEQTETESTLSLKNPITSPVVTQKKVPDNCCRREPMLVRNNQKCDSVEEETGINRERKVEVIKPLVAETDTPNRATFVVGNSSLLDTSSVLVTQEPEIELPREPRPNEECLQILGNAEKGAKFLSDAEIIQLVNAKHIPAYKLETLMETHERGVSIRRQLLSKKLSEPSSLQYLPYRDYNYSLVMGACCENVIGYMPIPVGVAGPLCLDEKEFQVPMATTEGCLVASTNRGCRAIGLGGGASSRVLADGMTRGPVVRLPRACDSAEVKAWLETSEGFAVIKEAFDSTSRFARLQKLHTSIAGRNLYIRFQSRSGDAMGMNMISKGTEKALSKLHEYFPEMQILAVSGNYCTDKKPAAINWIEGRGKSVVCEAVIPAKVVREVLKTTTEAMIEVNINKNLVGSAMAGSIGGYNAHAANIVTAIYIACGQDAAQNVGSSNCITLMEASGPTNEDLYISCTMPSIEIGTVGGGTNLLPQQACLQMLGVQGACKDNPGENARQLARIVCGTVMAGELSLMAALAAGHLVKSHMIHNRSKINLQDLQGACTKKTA
Also noted: species or system Escherichia coli.

The target in a further experiment is T4, Neutrophil elastase (Homo sapiens, UniProt P08246).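 Also: inhibition of neutrophil elastase enzyme activity, measured with a p-nitroanilide-linked peptide substrate.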
T4 sequence (P08246 whole entry): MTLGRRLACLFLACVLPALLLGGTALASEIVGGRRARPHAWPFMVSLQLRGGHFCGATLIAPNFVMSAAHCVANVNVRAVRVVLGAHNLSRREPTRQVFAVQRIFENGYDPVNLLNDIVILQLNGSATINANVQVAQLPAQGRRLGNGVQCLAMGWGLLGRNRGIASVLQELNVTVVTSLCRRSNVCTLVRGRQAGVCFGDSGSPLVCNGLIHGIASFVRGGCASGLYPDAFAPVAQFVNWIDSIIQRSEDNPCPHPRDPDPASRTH
The experiment is classed as tissue-based.
Also: in other assays of this panel Not Active means under 50% inhibition at 10 µM.

Sequence of 5-hydroxytryptamine receptor 6 (P50406 whole entry): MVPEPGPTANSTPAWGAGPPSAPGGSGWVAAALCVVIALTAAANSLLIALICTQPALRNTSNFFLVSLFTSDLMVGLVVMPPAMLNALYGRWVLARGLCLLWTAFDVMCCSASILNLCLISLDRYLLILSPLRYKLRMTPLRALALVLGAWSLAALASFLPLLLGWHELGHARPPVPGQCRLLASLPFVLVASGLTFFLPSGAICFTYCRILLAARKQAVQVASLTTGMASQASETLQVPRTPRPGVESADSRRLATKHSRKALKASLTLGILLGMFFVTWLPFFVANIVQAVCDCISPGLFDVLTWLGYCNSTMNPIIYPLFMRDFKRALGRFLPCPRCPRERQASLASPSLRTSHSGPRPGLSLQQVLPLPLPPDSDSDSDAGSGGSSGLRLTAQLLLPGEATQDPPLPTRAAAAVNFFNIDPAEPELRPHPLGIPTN

For orientation: IC50 means the concentration needed to halve the response being measured. In the case of `O=C/C=C/c1ccccc1`, the half-maximal inhibitory concentration (IC50) entry (in experiment [1]; in experiment [2]; in experiment [3]; in experiment [4]; in experiment [5]; on Neutrophil elastase) was “Not Active” each time.

For `COc1ccc(C(=O)N2CCCC2=O)cc1`, the IC50 result (in experiment [1]; in experiment [2]; in experiment [3]; in experiment [4]; in experiment [5]; against Neutrophil elastase) was “Not Active” in each case.

For the compound `CC[C@H](C)[C@H]1O[C@]2(C=C[C@@H]1C)C[C@@H]1C[C@@H](C/C=C(\C)[C@@H](O[C@H]3C[C@H](OC)[C@@H](O[C@H]4C[C@H](OC)[C@@H](O)[C@H](C)O4)[C@H](C)O3)[C@@H](C)/C=C/C=C3\CO[C@@H]4[C@H](O)C(C)=C[C@@H](C(=O)O1)[C@]34O)O2.CO[C@H]1C[C@H](O[C@H]2[C@H](C)O[C@@H](O[C@@H]3/C(C)=C/C[C@@H]4C[C@@H](C[C@]5(C=C[C@H](C)[C@@H](C(C)C)O5)O4)OC(=O)[C@@H]4C=C(C)[C@@H](O)[C@H]5OC/C(=C\C=C\[C@@H]3C)[C@]54O)C[C@@H]2OC)O[C@@H](C)[C@@H]1O` [ABAMECTIN], the IC50 result (in experiment [1]; in experiment [2]; in experiment [3]; in experiment [4]; in experiment [5]; at Neutrophil elastase) was “Not Active” throughout.

With `NCCCC(O)(P(=O)(O)O)P(=O)(O)O` [ALENDRONIC ACID], the IC50 result (in experiment [1]; in experiment [2]; in experiment [3]; in experiment [4]; in experiment [5]; on Neutrophil elastase) was “Not Active” each time.

Turning to `Cc1nnc2n1-c1ccc(Cl)cc1C(c1ccccc1)=NC2` [ALPRAZOLAM], the IC50 entry (in experiment [1]; in experiment [2]; in experiment [3]; in experiment [4]; in experiment [5]; on Neutrophil elastase) was “Not Active” in each case.

For the compound `Cn1c(=O)c2[nH]cnc2n(C)c1=O.Cn1c(=O)c2[nH]cnc2n(C)c1=O.NCCN` [AMINOPHYLLINE], the IC50 entry (in experiment [1]; in experiment [2]; in experiment [3]; in experiment [4]; in experiment [5]; on Neutrophil elastase) was “Not Active” each time.

Consider `CC1(C)S[C@@H]2[C@H](NC(=O)[C@H](N)c3ccccc3)C(=O)N2[C@H]1C(=O)O` [AMPICILLIN], for which the IC50 result (in experiment [1]; in experiment [2]; in experiment [3]; in experiment [4]; in experiment [5]; against Neutrophil elastase) was “Not Active” throughout.

Turning to `COc1ccc(C2C(=O)c3ccccc3C2=O)cc1` [ANISINDIONE], the IC50 entry (in experiment [1]; in experiment [2]; in experiment [3]; in experiment [4]; in experiment [5]; on Neutrophil elastase) was “Not Active” in each case.

Regarding `O=C1O[C@H]([C@@H](O)CO)C(O)=C1O` [ASCORBIC ACID], the 50% inhibitory concentration (IC50) entry (in experiment [1]; in experiment [2]; in experiment [3]; in experiment [4]; in experiment [5]; at Neutrophil elastase) was “Not Active” throughout.

As for `CN1[C@@H]2CC[C@H]1C[C@@H](OC(=O)C(CO)c1ccccc1)C2` (stereo not given in full) [ATROPINE], the IC50 entry (in experiment [1]; in experiment [2]; in experiment [3]; in experiment [4]; in experiment [5]; at Neutrophil elastase) was “Not Active” in each case.

Take `COc1ccc2cc3[n+](cc2c1OC)CCc1cc2c(cc1-3)OCO2.[Cl-]` [BERBERINE CHLORIDE]: the IC50 result (in experiment [1]; in experiment [2]; in experiment [3]; in experiment [4]; in experiment [5]; at Neutrophil elastase) was “Not Active” in each case.

Consider `O=C(O)CCNC(=O)c1ccccc1` [BETAMIPRON], for which the IC50 entry (in experiment [1]; in experiment [2]; in experiment [3]; in experiment [4]; in experiment [5]; against Neutrophil elastase) was “Not Active” throughout.

Turning to `Cc1cc2c(OCC(CNC(C)(C)C)OC(=O)c3ccccc3)cccc2[nH]1` (stereo not given) [BOPINDOLOL], the IC50 entry (in experiment [1]; in experiment [2]; in experiment [3]; in experiment [4]; in experiment [5]; against Neutrophil elastase) was “Not Active” in each case.

`Brc1c(NC2=NCCN2)ccc2nccnc12` [BRIMONIDINE]: the IC50 result (in experiment [1]; in experiment [2]; in experiment [3]; in experiment [4]; in experiment [5]; on Neutrophil elastase) was “Not Active” throughout.

Consider `CN/C(=N\CCSCc1nc[nH]c1C)NC#N` [CIMETIDINE], for which the IC50 entry (in experiment [1]; in experiment [2]; in experiment [3]; in experiment [4]; in experiment [5]; against Neutrophil elastase) was “Not Active” in each case.

As to `COc1cc(N)c(Cl)cc1C(=O)NC1CCN(CCCOc2ccc(F)cc2)CC1OC` (stereo not given) [CISAPRIDE], the half-inhibitory concentration (IC50) result was “Not Active” in experiment [1]; “Not Active” in experiment [2]; “Not Active” in experiment [3]; “Not Active” in experiment [4]; 3.37 µM in experiment [5] (read-out: IC50); “Not Active” against Neutrophil elastase.

Consider `CCC(=O)O[C@]1(C(=O)CCl)[C@@H](C)C[C@H]2[C@@H]3CCC4=CC(=O)C=C[C@]4(C)[C@@]3(F)[C@@H](O)C[C@@]21C` [CLOBETASOL PROPIONATE], for which the IC50 result (in experiment [1]; in experiment [2]; in experiment [3]; in experiment [4]; in experiment [5]; against Neutrophil elastase) was “Not Active” in each case.

For `Nc1ccn([C@@H]2O[C@H](CO)[C@@H](O)[C@@H]2O)c(=O)n1` [CYTARABINE], the IC50 result (in experiment [1]; in experiment [2]; in experiment [3]; in experiment [4]; in experiment [5]; against Neutrophil elastase) was “Not Active” throughout.

As for `C[C@@H]1C[C@H]2[C@@H]3CCC4=CC(=O)C=C[C@]4(C)[C@@]3(F)[C@@H](O)C[C@]2(C)[C@H]1C(=O)CO` [DESOXIMETASONE], the IC50 entry (in experiment [1]; in experiment [2]; in experiment [3]; in experiment [4]; in experiment [5]; against Neutrophil elastase) was “Not Active” in each case.

In the case of `C[C@@H]1C[C@H]2[C@@H]3CCC4=CC(=O)C=C[C@]4(C)[C@@]3(F)[C@@H](O)C[C@]2(C)[C@@]1(O)C(=O)CO` [DEXAMETHASONE], the IC50 entry (in experiment [1]; in experiment [2]; in experiment [3]; in experiment [4]; in experiment [5]; on Neutrophil elastase) was “Not Active” throughout.
